According to PubChem BioAssay AID328 (DTP/NCI, 2004):
Where “and” joins values, the source holds several entries; their conditions need not be identical. Equal entries are not always repeated. Toxic doses and inconclusive results are not listed.

Tested on: BDF1 mice, P388 leukemia ip, median survival T/C
Assay: NCI In Vivo Anticancer Drug Screen. Data for tumor model P388 Leukemia (intraperitoneal) in B6D2F1 (BDF1) mice
Conditions: endpoint: median survival time, higher = longer survival
In short: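 Read-out is survival of treated animals expressed relative to the vehicle group, as a T/C ratio.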

[1] = dose: 100.0 mg/kg/injection, schedule: Q01DX009 (ip), vehicle: Klucel (hydroxypropylcellulose) (HPC)
[2] = dose: 100.0 mg/kg/injection, schedule: Q04DX003 (ip), vehicle: Klucel (hydroxypropylcellulose) (HPC)
[3] = dose: 200.0 mg/kg/injection, schedule: Q04DX003 (ip), vehicle: Klucel (hydroxypropylcellulose) (HPC)
[4] = dose: 100.0 mg/kg/injection, schedule: Q04DX003 (ip), vehicle: saline
[5] = dose: 200.0 mg/kg/injection, schedule: Q04DX003 (ip), vehicle: saline
[6] = dose: 400.0 mg/kg/injection, schedule: Q04DX003 (ip), vehicle: saline
[7] = dose: 6.25 mg/kg/injection, schedule: Q01DX009 (ip), vehicle: saline with Tween-80
[8] = dose: 12.5 mg/kg/injection, schedule: Q01DX009 (ip), vehicle: saline with Tween-80
[9] = dose: 25.0 mg/kg/injection, schedule: Q01DX009 (ip), vehicle: saline with Tween-80
[10] = dose: 100.0 mg/kg/injection, schedule: Q01DX009 (ip), vehicle: saline with Tween-80
[11] = dose: 200.0 mg/kg/injection, schedule: Q01DX009 (ip), vehicle: saline with Tween-80
[12] = dose: 400.0 mg/kg/injection, schedule: Q01DX009 (ip), vehicle: saline with Tween-80
[13] = dose: 200.0 mg/kg/injection, schedule: Q04DX003 (ip), vehicle: saline with Tween-80
[14] = dose: 400.0 mg/kg/injection, schedule: Q04DX003 (ip), vehicle: saline with Tween-80
[15] = dose: 50.0 mg/kg/injection, schedule: Q01DX009 (ip), vehicle: saline with Tween-80

`O=[N+]([O-])CC1CCCCC1O` (stereo unspecified) was tested, and the T/C (dose: 6.25 mg/kg/injection, schedule: Q04DX003 (ip), vehicle: saline with Tween-80) was 100 % of control, the T/C (dose: 12.5 mg/kg/injection, schedule: Q04DX003 (ip), vehicle: saline with Tween-80) was 100 % of control and the T/C (dose: 25.0 mg/kg/injection, schedule: Q04DX003 (ip), vehicle: saline with Tween-80) was 90 % of control.
`C[C@]12CCC(=O)C=C1CC[C@H]1[C@@H]3CCC(=O)O[C@@]3(C)CC(=O)[C@@]12F` was tested, and the T/C [1] was 111 % of control, the T/C [2] was 90 % of control and the T/C (dose: 200.0 mg/kg/injection, schedule: Q01DX009 (ip), vehicle: Klucel (hydroxypropylcellulose) (HPC)) was 96 % of control. For the same compound, the T/C [3] was 109 % of control, the T/C (dose: 400.0 mg/kg/injection, schedule: Q01DX009 (ip), vehicle: Klucel (hydroxypropylcellulose) (HPC)) was 100 % of control and the T/C (dose: 400.0 mg/kg/injection, schedule: Q04DX003 (ip), vehicle: Klucel (hydroxypropylcellulose) (HPC)) was 86 % of control.
In the case of `O=C1CCC(=O)C12CCNCC2`, the T/C [4] is reported as 100 % of control, the T/C [5] is reported as 100 % of control and the T/C [6] is reported as 109 % of control.
In the case of `CCCCCCCNC(C)(C)C(SS)c1ccc(Cl)cc1` (stereo unspecified), the T/C (dose: 100.0 mg/kg/injection, schedule: Q04DX003 (sc), vehicle: olive oil, sesame oil, peanut oil) is reported as 100 % of control, the T/C (dose: 200.0 mg/kg/injection, schedule: Q04DX003 (sc), vehicle: olive oil, sesame oil, peanut oil) is reported as 109 % of control and the T/C (dose: 400.0 mg/kg/injection, schedule: Q04DX003 (sc), vehicle: olive oil, sesame oil, peanut oil) is reported as 100 % of control.
`O=C(NC1CCCCC1)OCC#CC#CCOC(=O)NC1CCCCC1` was tested, and the T/C [2] was 95 % of control and the T/C [3] was 100 % of control.
In the case of `O=C(O)CCCCOc1ccc(N(CCCl)CCCl)cc1`, the T/C (dose: 50.0 mg/kg/injection, schedule: Q01DX001 (ip), vehicle: Klucel (hydroxypropylcellulose) (HPC)) is reported as 174 % of control, the T/C (dose: 100.0 mg/kg/injection, schedule: Q01DX001 (ip), vehicle: Klucel (hydroxypropylcellulose) (HPC)) is reported as 177 % of control and the T/C (dose: 200.0 mg/kg/injection, schedule: Q01DX001 (ip), vehicle: Klucel (hydroxypropylcellulose) (HPC)) is reported as 155 % of control.
In the case of `C[N+](C)(C)CCC[N+](C)(C)C`, the T/C [4] is reported as 100 % of control, the T/C (dose: 200.0 mg/kg/injection, schedule: Q01DX006 (ip), vehicle: saline) is reported as 114 % of control and the T/C [5] is reported as 104 % of control. The T/C (dose: 300.0 mg/kg/injection, schedule: Q01DX006 (ip), vehicle: saline) was 151 % of control, the T/C (dose: 400.0 mg/kg/injection, schedule: Q01DX006 (ip), vehicle: saline) was 94 % of control and the T/C [6] was 93 % of control.
In the case of `c1ccc(N/N=C(/C[n+]2cc3ccccc3c3ccccc32)c2ccccc2)cc1`, the T/C (dose: 25.0 mg/kg/injection, schedule: Q01DX009 (ip), vehicle: Klucel (hydroxypropylcellulose) (HPC)) is reported as 114 % of control, the T/C (dose: 33.0 mg/kg/injection, schedule: Q01DX009 (ip), vehicle: Klucel (hydroxypropylcellulose) (HPC)) is reported as 113 % of control and the T/C (dose: 35.0 mg/kg/injection, schedule: Q01DX009 (ip), vehicle: Klucel (hydroxypropylcellulose) (HPC)) is reported as 95 % of control. For the same compound, the T/C (dose: 50.0 mg/kg/injection, schedule: Q01DX009 (ip), vehicle: Klucel (hydroxypropylcellulose) (HPC)) was 100 % of control, the T/C (dose: 75.0 mg/kg/injection, schedule: Q01DX009 (ip), vehicle: Klucel (hydroxypropylcellulose) (HPC)) was 112 % of control and 122 % of control and the T/C [1] was 114 % of control.
With `CB1NN=C(C)c2ccsc21` the T/C [7] was 105 % of control, the T/C [8] was 91 % of control and the T/C [9] was 95 % of control.
With `O=C1CN(Cc2ccc(Cl)cc2)CC(=O)N2CCCN12` the T/C (dose: 50.0 mg/kg/injection, schedule: Q01DX005 (ip), vehicle: saline with Tween-80) was 92 % of control.
For `COc1ccc(C(=O)CC(C#N)c2ccc(OC)c(OC)c2)cc1OC` (stereo unspecified), the T/C [10] was 100 % of control, the T/C [11] was 100 % of control and the T/C [12] was 95 % of control.
For `N#CCSc1ncnc2nc[nH]c12`, the T/C (dose: 30.0 mg/kg/injection, schedule: Q01DX010 (ip), vehicle: saline) was 95 % of control and 100 % of control, the T/C (dose: 60.0 mg/kg/injection, schedule: Q01DX010 (ip), vehicle: saline) was 100 % of control and the T/C (dose: 120.0 mg/kg/injection, schedule: Q01DX010 (ip), vehicle: saline) was 100 % of control.
With `CCCCSc1ncnc2c1ncn2C1CCCCO1` (stereo unspecified) the T/C (dose: 100.0 mg/kg/injection, schedule: Q01DX009 (ip), vehicle: saline sonified) was 90 % of control, the T/C (dose: 100.0 mg/kg/injection, schedule: Q04DX003 (ip), vehicle: saline with Tween-80) was 87 % of control and the T/C (dose: 200.0 mg/kg/injection, schedule: Q01DX009 (ip), vehicle: saline sonified) was 122 % of control. For the same compound, the T/C [13] was 100 % of control, the T/C (dose: 400.0 mg/kg/injection, schedule: Q01DX009 (ip), vehicle: saline sonified) was 100 % of control and the T/C [14] was 100 % of control.
In the case of `NC(N)=N/N=C/c1cccc2ccccc12`, the T/C [7] is reported as 100 % of control, the T/C [8] is reported as 108 % of control and the T/C [9] is reported as 108 % of control.
In the case of `O=C(NC(=S)N1CC=CCC1)c1ccccc1`, the T/C [15] is reported as 87 % of control, the T/C [10] is reported as 111 % of control and the T/C [11] is reported as 108 % of control. For the same compound, the T/C [12] was 101 % of control.
`CSCCCNC(=O)c1csc(-c2csc(CCNC(=O)c3ccccc3)n2)n1` was tested, and the T/C (dose: 8.0 mg/kg/injection, schedule: Q01DX009 (ip), vehicle: saline) was 100 % of control, the T/C (dose: 16.0 mg/kg/injection, schedule: Q01DX009 (ip), vehicle: saline) was 100 % of control and the T/C (dose: 32.0 mg/kg/injection, schedule: Q01DX009 (ip), vehicle: saline) was 110 % of control. The T/C (dose: 64.0 mg/kg/injection, schedule: Q01DX009 (ip), vehicle: saline) was 120 % of control.
`CCC1CN1P(=O)(Oc1ccc2ccccc2c1)N1CC1CC` (stereo unspecified) was tested, and the T/C [13] was 245 % of control and the T/C [14] was 86 % of control.
In the case of `COc1ccc2nc3cc(Cl)ccc3c(NCCO)c2c1`, the T/C (dose: 37.5 mg/kg/injection, schedule: Q01DX010 (ip), vehicle: saline) is reported as 100 % of control, the T/C (dose: 75.0 mg/kg/injection, schedule: Q01DX010 (ip), vehicle: saline) is reported as 100 % of control and the T/C (dose: 150.0 mg/kg/injection, schedule: Q01DX010 (ip), vehicle: saline) is reported as 100 % of control.
For `Cc1ccn(C(=O)CC#N)n1`, the T/C (dose: 75.0 mg/kg/injection, schedule: Q01DX009 (ip), vehicle: saline with Tween-80) was 91 % of control, the T/C (dose: 150.0 mg/kg/injection, schedule: Q01DX009 (ip), vehicle: saline with Tween-80) was 97 % of control and the T/C (dose: 300.0 mg/kg/injection, schedule: Q01DX009 (ip), vehicle: saline with Tween-80) was 92 % of control.
In the case of `CCCCN1C/C(=C\c2ccc(Br)cc2)C(=O)/C(=C/c2ccc(Br)cc2)C1`, the T/C (dose: 6.25 mg/kg/injection, schedule: Q01DX005 (ip), vehicle: saline with Tween-80) is reported as 91 % of control and the T/C (dose: 12.5 mg/kg/injection, schedule: Q01DX005 (ip), vehicle: saline with Tween-80) is reported as 95 % of control.
In the case of `OCCC1=CCC1`, the T/C [15] is reported as 101 % of control, the T/C [10] is reported as 101 % of control and the T/C [11] is reported as 111 % of control.
In the case of `Cc1cc(Cc2cc(C)c(C)c(C)c2C)c(C)c(C)c1C`, the T/C [8] is reported as 93 % of control, the T/C [9] is reported as 100 % of control and the T/C [15] is reported as 98 % of control. The T/C [10] was 97 % of control.
For `NC(CCC(=O)NNc1ccccc1)C(=O)O` (stereo unspecified), the T/C (dose: 15.0 mg/kg/injection, schedule: Q01DX009 (ip), vehicle: saline with Tween-80) was 96 % of control and the T/C (dose: 30.0 mg/kg/injection, schedule: Q01DX009 (ip), vehicle: saline with Tween-80) was 91 % of control.
`Cn1c(O)c(N=NC(N)=S)c2ccccc21` was tested, and the T/C (dose: 10.0 mg/kg/injection, schedule: Q01DX009 (ip), vehicle: saline with Tween-80) was 102 % of control, the T/C (dose: 20.0 mg/kg/injection, schedule: Q01DX009 (ip), vehicle: saline with Tween-80) was 98 % of control and the T/C (dose: 40.0 mg/kg/injection, schedule: Q01DX009 (ip), vehicle: saline with Tween-80) was 115 % of control. The T/C [15] was 90 % of control, the T/C (dose: 80.0 mg/kg/injection, schedule: Q01DX009 (ip), vehicle: saline with Tween-80) was 120 % of control and the T/C [10] was 90 % of control. The T/C (dose: 160.0 mg/kg/injection, schedule: Q01DX009 (ip), vehicle: saline with Tween-80) was 113 % of control and the T/C [11] was 90 % of control.
In the case of `CCCCCCCCNC12CC3CC(CC(C3)C1)C2`, the T/C (dose: 6.25 mg/kg/injection, schedule: Q04DX003 (ip), vehicle: saline) is reported as 104 % of control, the T/C (dose: 12.5 mg/kg/injection, schedule: Q04DX003 (ip), vehicle: saline) is reported as 108 % of control and the T/C (dose: 25.0 mg/kg/injection, schedule: Q04DX003 (ip), vehicle: saline) is reported as 116 % of control. For the same compound, the T/C (dose: 50.0 mg/kg/injection, schedule: Q04DX003 (ip), vehicle: saline) was 100 % of control and the T/C [4] was 108 % of control.
